Assay results reported in US5591758A, “Organic nitrates, processes for their preparation and their use in the treatment of cardiovascular diseases” (Laboratoires Hoechst, SA, priority 1991, dated 1997).
Where a name gives a salt, the structure may show the parent alone.

How the values were obtained:
[1] = test system: anesthetised pigs; experiment: Haemodynamic effects on anesthetised pigs; assay type: in vivo, pigs ("German land" race)
Experimental: Haemodynamic effects of the compounds according to the invention on anesthetised pigs or dogs
Pigs are of "German land" race (20-26 kg) and are used after fasting overnight.
In the case of pigs, sedation, analgesia and anesthesia are induced by ketamine HCl (20 mg/kg i.m.), methonidate HCl (10 mg/kg i.m.), xylacine HCl (3 mg/kg i.m.) and sodium pentobarbitol (25-30 mg/kg as bolus i.v. or 0.16 mg/kg/min as i.v. perfusion).
The pigs or dogs are placed under artificial respiration in ambient air. Analysis of the blood gases (pO2, pCO2) is carried out at regular intervals and oxygen can be supplied via the respirator, if necessary.
The haemodynamic parameters recorded include the left ventricular pressure (LVP; Millar PC350 Tip catheter inserted via the carotid artery), systemic blood pressure (BPs, BPd; full catheter in a femoral artery), the end pressure of the left ventricular diastole (LVEDP), the ventricular contractility (LVPdp/dtmax) and the heart rate (HR).
The haemodynamic variables are recorded continuously for 1 to 3 hours, as a function of the period of action of the compound.
The effects of the compounds studied are shown as the absolute difference with respect to the base value (bv) measured before administration of the compounds and are shown in Table VII (a,b,c).
An antianginal activity is estimated by a fall in the BPs and the LVEDP (fall in venous return).

[2] = test system: isolated pulmonary vessel; experiment: Relaxant activity on blood vessels isolated from guinea pigs (pulmonary artery); conditions: Cavia porcellus; guinea pig pulmonary artery, K+ depolarised, Ca2+ contraction; read-out: IC50 (relaxation of 50%)
Experimental: Determination of the relaxant activity of the compounds according to the invention on blood vessels isolated from guinea pigs.
The pulmonary artery of male guinea pigs (350-500 g) is isolated and cut into spiral tracts (1 mm wide, 15 mm long). […] After having removed the calcium from the tissues (Tyrode without calcium and 0.2 mM EDTA), the tracts are depolarised in the presence of a concentrated solution of K^+ ions (40 mM), which is produced by replacing the NaCl by equimolar amounts of KCl, and a contraction of long duration is then induced by Ca^2+ ions (0.5 mM).
The compounds studied are then introduced into the organ cell in increasing concentrations.
Each compound is tested on at least four vessel spiral tracts.

[3] = test system: thoracic aorta; experiment: Vasorelaxant effect on isolated vessels (rat thoracic aorta rings without endothelium, precontracted with noradrenalin); design: species or system Wistar rats; conditions: for Emax: Rattus norvegicus, maximum inhibition of noradrenalin effect, 10^-8 to 10^-4 M substance, read-out: Maximum Relaxation; for IC50: rat aorta, 10^-7 M noradrenalin contraction
In short: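 Endothelium-denuded thoracic aorta rings from Wistar rats, held in Krebs-Ringer buffer (pH 7.4, 37 °C, 95% O2/5% CO2) under isometric tension and precontracted with 10^-7 M noradrenalin, received cumulative compound (10^-8 to 10^-4 M). Maximum relaxation given as percent; IC50 calculated when relaxation exceeded 50%.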

[4] = Stability in water (seen in optical rotation); assay type: physicochemical; conditions: water (c 0.6)

Row | IC50 [2] [µM] | IC50 [3] [µM] | stability in water [4] | Structure (SMILES) | BPs (min), period of action ([1]; pigs, 3,0 mg/kg i.d.) [min] | BPs, difference to base value ([1]; pigs, 3,0 mg/kg i.d.) [mmHg] | LVRDP (min), period of action ([1]; pigs, 3,0 mg/kg i.d.) [min] | LVRDP, difference to base value ([1]; pigs, 3,0 mg/kg i.d.) | Emax [3] [%] | BPs (min), period of action ([1]; pigs, 10,0 mg/kg i.d.) [min] | BPs, difference to base value ([1]; pigs, 10,0 mg/kg i.d.) [mmHg] | LVRDP (min), period of action ([1]; pigs, 10,0 mg/kg i.d.) [min] | LVRDP, difference to base value ([1]; pigs, 10,0 mg/kg i.d.)
1 | 32 | 10 |  | O=C(N[C@H]1CO[C@H]2[C@@H]1OC[C@@H]2O[N+](=O)[O-])[C@@H]1CSCN1 [Compound 30, 5-[[(4-L-Thiazolidinyl)carbonyl]amino]-5-deoxy-2-O-nitro-1,4:3,6-dianhydro-L-iditol monohydrochloride] | > 60 | -40 | > 60 | -2,0 mmHg | 100 |  |  |  | 
2 |  | 15 | instability of the product in water | CC1(C)N[C@H](C(=O)N[C@H]2CO[C@H]3[C@@H]2OC[C@@H]3O[N+](=O)[O-])CS1 [Compound 32, 5-[[(2,2-Dimethyl-4-L-thiazolidinyl)carbonyl]amino]-5-deoxy-2-O-nitro-1,4:3,6-dianhydro-L-iditol monohydrochloride] | > 180 | -30 | > 180 | -4,0 mmHg | 100 |  |  |  | 
3 | 1 | 50 |  | O=C(N[C@H]1CO[C@H]2[C@@H]1OC[C@@H]2O[N+](=O)[O-])c1ccccc1SCc1ccccc1 [Compound 39] |  |  |  |  | 80 | > 90 | -5 | > 90 | -1,0 mmHg
4 | > 100 | > 100 |  | CC1(C)SC[C@@H](C(=O)NCC(=O)N[C@H]2CO[C@H]3[C@@H]2OC[C@@H]3O[N+](=O)[O-])N1C=O [Compound 48, 5-[[2-[[(3-Formyl-2,2-dimethyl-4-L-thiazolidinyl)carbonyl]amino]-1-oxoethyl]amino]-5-deoxy-2-O-nitro-1,4:3,6-dianhydro-L-iditol] |  |  |  |  | 25 | > 180 | -25 | > 180 | -4,0 mmHg
